{"source": "patent US20230340498A1", "about": "“COMPOSITIONS AND METHODS FOR INDUCIBLE ALTERNATIVE SPLICING REGULATION OF GENE EXPRESSION” (The Children's Hospital of Philadelphia, priority 2020, published 2023)", "test_system": "SMN2-on minigene", "assay": "SMN2-on cassette Firefly luciferase reporter assay in transfected HEK293 cells", "assay_type": "cell-based, Human", "details": "HEK293 cells, varying doses", "protocol": "Cell culture, transfection, and LMI070/RG7800 treatment. Human embryonic kidney (HEK293) cells (obtained from CHOP Research Vector Core stock) were maintained in DMEM media containing 10% Fetal Bovine Serum (FBS), 1% L-Glutamine and 1% penicillin/streptomycin at 37° C. with 5% CO2. Cells were cultured in 24 well plates and transfected at 80-90% confluence using Lipofectamine 2000 transfection reagent, according to the manufacturer’s protocol. For all experiments, 4 hours after plasmid transfection, cells were treated with LMI070 (MedChemExpress, HY-19620, suspended in DMSO) or RG7800 (MedChemExpress, HY-101792A, suspended in H2O) at the indicated concentrations. Cells were tested for mycoplasma by Research Vector Core. None of the cells used in the study were listed in ICLAC database of commonly misidentified cell lines.\nIn vitro luciferase assays. HEK293 cells were cultured in DMEM (10% FBS (v/v), 1% Pen/ Strep (v/v), and 1% L-glutamine (v/v) in a 24-well plate. At 70%-80% confluence, cells were co-transfected with the Xon.Firefly luciferase cassettes (0.3 µg/well) and a SV40p-Renilla luciferase cassette as transfection control (0.02 µg/well). Four hours after transfections cells were treated either with LMI070 or RG7800 at indicated concentrations. At 24 h after transfection, cells were rinsed with ice-cold PBS and Renilla and Firefly luciferase activities were assessed using the Dual-Luciferase Reporter Assay System (Promega) according to the manufacturer’s instructions. Luminescent readouts were obtained with a Monolight 3010 luminometer (Pharmigen). Relative light units (RLUs) were calculated as the quotient of […] RLUs and results expressed relative to mock treated control cells.\nFor this, SMN2-on cassettes were generated to provide drug-induced reporter gene expression. HEK293 cells were transfected with the SMN2-on expression cassettes and luciferase activity evaluated in response to varying doses of LMI070 or RG7800. […]"}
{"smiles": "CCc1nc(C)cn2nc(-c3cc(=O)n4cc(C5CCN(C)CC5)cc(C)c4n3)cc12", "note": "[RG7800]", "values": [{"measurement": "luciferase activity from the SMN2-on minigene", "value": "induced luciferase activity"}]}
